The source of these data is PubChem BioAssay (NCI).

Where “and” joins values, the source holds several entries; their conditions need not be identical. Identical values can stand only once.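 Results reflect a 48-hour exposure of cells in 96-well plates to compound at five concentrations. The concentration for 50% growth inhibition is given as GI50. TGI is the concentration that stops growth completely.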

Holding throughout (experiment): inhibition of tumour cell growth, NCI panel, 48 h
Assay [1] relates to SN12C renal.
Assay [2] concerns SF-268 CNS.
Assay [3] has as its system SR leukemia.
Assay [4] concerns CCRF-CEM leukemia.
Assay [5] concerns NCI-H522 lung.
In assay [6] the test system is 786-0 renal.
In assay [7] the test system is LOX IMVI melanoma.
The subject of assay [8] is UACC-62 melanoma.
Assay [9] relates to HOP-92 NSCLC.

As for `COC(=O)/C(C#N)=C1\CCC(O)N1` (stereo not given), the TGI in [1], in assay [2], in assay [3], in assay [4], in [5] and in assay [6] was more than 100 µM each time. Also, the TGI in assay [7] and in assay [8] was more than 100 µM each time.

Consider `CN[C@@H](C)[C@H](NC)c1ccccc1`, for which the TGI in [1], in assay [4], in assay [9], in assay [5], in [6] and in assay [7] was more than 100 µM each time. In addition, in [8], the TGI is more than 100 µM.

For `CCOC(=N)CC(=O)Nc1cccc(C)c1C`, the TGI in assay [1], in assay [2], in [3], in assay [4], in assay [5] and in [6] was more than 100 µM throughout. Further, the TGI in assay [7] and in assay [8] was more than 100 µM throughout.

On to `CC(=O)c1sc(-c2nc(C)c(C(=O)/C=C\c3ccc(/C=C\C(=O)c4sc(-c5nc(C)c(C(C)=O)s5)nc4C)cc3)s2)nc1C`, for which the TGI in [1], in [2], in [3], in assay [4], in assay [5] and in [6] was more than 100 µM throughout. Further, the TGI in assay [7] and in assay [8] was more than 100 µM throughout.

For `O=C(Cc1ccccc1)NN1C(=O)C(Cl)C1c1ccc(O)cc1` (stereo not given), the TGI in [1], in assay [2], in assay [3], in assay [4], in assay [5] and in assay [6] was more than 100 µM each time. Moreover, the TGI in [7] and in assay [8] was more than 100 µM in each case.

Consider `O=c1[nH]c2cc(Cl)ccc2nc1/C(=N\O)C(O)c1ccc(Cl)cc1Cl` (stereo not given), for which the TGI in assay [1], in [2], in [3], in assay [4], in assay [9] and in [5] was more than 100 µM each time. For the same molecule, the TGI in [6], in assay [7] and in [8] was more than 100 µM throughout.

Regarding `O=C1Nc2c(ccc(Cl)c2I)C1=O`, the TGI in assay [1] was 30.9 µM; in [2] it was 39.4 µM; in [3], 42.2 µM; in assay [4], 60.9 µM; in assay [5] it was 30.6 µM; in [6], 28.2 µM. Besides, the TGI in assay [7] was 37 µM; in assay [8], 33.8 µM.

With `COc1ccc(C2c3cc(OC)c(OC)cc3C(Cc3ccc([N+](=O)[O-])cc3)C2c2ccc([N+](=O)[O-])cc2)cc1OC` (stereo not given), the TGI in assay [1], in assay [2], in [4], in assay [9], in assay [5] and in assay [6] was more than 100 µM in each case. Moreover, the TGI in assay [7] and in [8] was more than 100 µM each time.

With `Cc1cc(NS(=O)(=O)c2ccc(Nc3c4ccccc4nc4c(C(=O)NCCN(C)C)cccc34)cc2)no1`, the TGI is more than 100 µM in assay [1]; 16.4 µM in assay [2]; more than 100 µM in [3]; 11.1 µM in assay [4]; 4.56 µM in assay [5]; 19.7 µM in assay [6]. The TGI in assay [7] was found to be 31.3 µM; in [8], 14.4 µM.

`CCCCCCCCCCCCCCCCCC(=O)O[C@H](COC(=O)CCCCCCCCCCC)COC(=O)CCCCCCCCCCCCCCC`: the TGI in assay [1], in assay [2], in assay [3], in assay [4], in [9] and in assay [6] was more than 100 µM each time. Moreover, the TGI in [7] and in assay [8] was more than 100 µM in each case.

In the case of `COc1cccc(-n2c3nc(=O)n(C)c(=O)c-3nc3ccccc32)c1`, the TGI in assay [1] is 30.8 µM; in assay [2] it was 53.9 µM; in [4], 79.1 µM; in assay [9], 72.5 µM; in [5] it was 97.5 µM; in assay [6], more than 100 µM. Further, the TGI in [8] stood at 19.5 µM.

In the case of `COC(=O)N/N=C(\C)C(CN1CCCCC1)C(C1=C(O)c2ccccc2OC1)c1ccccc1` (stereo not given), the TGI in assay [1], in assay [2], in [3], in assay [4], in assay [5] and in [6] was more than 100 µM each time. In addition, the TGI in [7] and in [8] was more than 100 µM throughout.

Take `O=C1CC2C(=O)N(Cc3ccccc3)C1C=C2S(=O)(=O)c1ccccc1` (stereo not given): the TGI in assay [1], in assay [2], in [3], in [4], in assay [9] and in assay [5] was more than 100 µM throughout. The TGI in assay [6], in [7] and in assay [8] was more than 100 µM each time.

For the molecule `CCCCC1(CN2CCOCC2)S/C(=N/c2nc(CC(=O)OCC)cs2)NC1=O` (stereo not given), the GI50 is 35.8 µM in assay [1]; 37.6 µM in assay [2]; 26.2 µM in assay [3]; 32.9 µM in assay [9]; 32.1 µM in assay [5]; 37.9 µM in assay [6]. Besides, the values for the GI50 in [7] and in assay [8] were 20.3 µM and 28.3 µM, respectively. In addition, the TGI is more than 100 µM in assay [1]; more than 100 µM in assay [2]; 65.9 µM in assay [3]; more than 100 µM in assay [9]; more than 100 µM in assay [5]; more than 100 µM in assay [6]. For the same molecule, the TGI was 42.5 µM in [7] and more than 100 µM in [8].

As to `COC(=O)/C(C)=C/[N+](=O)[O-]`, the TGI in assay [1] worked out at 41 µM; in assay [2], 51.6 µM; in assay [4], 6.48 µM; in assay [9] it was 22.8 µM; in [6], 32.3 µM; in assay [7] it was 38.9 µM. The same molecule yielded a TGI in [8] of 32.8 µM.

In the case of `C[C@@]12CCCc3coc(c31)C(=O)c1cc3c(cc12)C(=O)C=CC3=O`, the GI50 in [1], in [9], in assay [5], in assay [6], in [7] and in [8] was more than 1 µM throughout. Also, the TGI in assay [1] is > 1 µM and 38.6 µM; in [2] it was more than 1 µM; in [4] it was 7.74 µM; in assay [9], > 1 µM and 14.6 µM; in assay [5] it was > 1 µM and 19.5 µM; in assay [6] it was > 1 µM and 30.7 µM. Also, the TGI was > 1 µM and 35.1 µM in assay [7]; > 1 µM and 32.1 µM in [8].

`CC1(C)O/C(=C\c2ccccc2)C(=O)/C(=C/c2ccccc2)O1`: the TGI is more than 100 µM in assay [1]; more than 100 µM in assay [2]; 75.3 µM in [3]; 44.4 µM in assay [4]; more than 100 µM in [9]; 22.5 µM in assay [5]. Moreover, the TGI in assay [6], in assay [7] and in assay [8] was more than 100 µM throughout.

Take `O=S1OC2(c3ccccc3-c3ccccc32)c2ccccc21` (stereo not given): the TGI in assay [1], in assay [3], in [4], in [5], in [6] and in [7] was more than 100 µM each time. In addition, the TGI in [8] was more than 100 µM.

Turning to `Cc1cc(C)c(C2[C@H]3C(=O)N(c4ccc(Cc5ccc(N6C(=O)[C@@H]7ON(c8ccccc8)C(c8c(C)cc(C)cc8C)[C@@H]7C6=O)cc5)cc4)C(=O)[C@H]3ON2c2ccccc2)c(C)c1` (stereo not given in full), the TGI in [1], in assay [2], in [3], in assay [4], in [5] and in assay [6] was more than 100 µM in each case. In addition, the TGI in [7] and in [8] was more than 100 µM throughout.

On to `COC(=O)CCC(=O)CC1CC(=O)C2CCCN12` (stereo not given), for which the TGI in assay [1], in assay [2], in assay [3], in assay [4], in assay [9] and in [5] was more than 100 µM in each case. Further, the TGI in [6], in [7] and in assay [8] was more than 100 µM throughout.

In the case of `CC12CCCCC1(C)C2Sc1ccccc1` (stereo not given), the TGI in assay [1] was more than 100 µM; in [2], more than 100 µM; in [4], 44.4 µM; in [9], 97 µM; in [5] it was more than 69.3 µM; in [6], more than 100 µM. The figures for the TGI in assay [7] and in assay [8] were more than 61 µM and more than 100 µM, respectively.

Take `CC1=NN(C(=O)CC(=O)N(C(=O)c2ccccc2Cl)c2ccc(C)cc2)C(=O)C1N=Nc1ccc([N+](=O)[O-])cc1` (stereo not given): the TGI in assay [1] was more than 100 µM; in [2] it was more than 100 µM; in assay [3], more than 100 µM; in assay [4] it was more than 70.7 µM; in assay [9] it was more than 78.5 µM; in [5], more than 100 µM. In addition, the TGI was more than 68.5 µM in assay [6], more than 57.4 µM in assay [7] and more than 53.7 µM in assay [8].

With `Nc1nc(CCl)nc(Nc2ccccc2)n1`, the TGI worked out at 45.2 µM in assay [2]; 33.7 µM in assay [3]; 4.58 µM in assay [4]; 33.6 µM in assay [9]; 3.27 µM in assay [5]; 4.35 µM in assay [6]. Also, the TGI in [8] was found to be 34.6 µM.

For `C[n+]1cc(C(O)c2ccc3c(c2)OCO3)c2ccccc2c1` (stereo not given), the TGI is more than 100 µM in assay [1]; more than 100 µM in assay [2]; more than 100 µM in [4]; 48.1 µM in [5]; more than 100 µM in assay [6]; more than 100 µM in assay [7]. Besides, the TGI in [8] is more than 100 µM.

As to `CN(C)C(=S)/N=c1\ss/c(=N\C(=S)N(C)C)n1-c1ccc(Cl)c(Cl)c1`, the TGI in assay [1], in [2], in assay [3], in assay [4], in assay [5] and in [6] was more than 100 µM each time. The TGI in assay [7] and in assay [8] was more than 100 µM in each case.

With `CCCCOC(=O)NC(=O)c1cn(CCCOC(=O)NCCCCCCNC(=O)OCCCn2cc(C(=O)NC(=O)OCCCC)c(=O)[nH]c2=O)c(=O)[nH]c1=O`, the TGI in [1], in assay [2], in [3], in assay [9], in assay [5] and in [6] was more than 100 µM throughout. Further, the TGI in [7] and in assay [8] was more than 100 µM each time.

Consider `COc1cc(C)c2c(c1C)OC(=O)c1c(C)c(Cl)c(O)c(C=O)c1O2`, for which the TGI is more than 100 µM in assay [1]; 65.1 µM in assay [2]; 31.9 µM in assay [3]; 47.3 µM in assay [4]; 24.6 µM in [6]; 42.8 µM in assay [7]. In assay [8], this molecule had a TGI of 43.6 µM.

Regarding `COC(=O)/C(C=O)=C/Sc1ccccc1`, the TGI in [1] is 42.9 µM; in assay [2] it was 33 µM; in assay [3], more than 100 µM; in [4] it was more than 100 µM; in [9], more than 100 µM; in assay [5], 24 µM. Also, the TGI in assay [6] was 30.2 µM; in [7] it was 23 µM; in assay [8], 77.8 µM.

`Nc1ccn(C2(CO)C=C(CO)C(O)C2O)c(=O)n1` (stereo not given): the TGI in assay [1], in assay [2], in assay [3], in assay [5], in assay [6] and in [8] was more than 25.8 µM each time.

As for `Cc1ccc(S(=O)(=O)NCCNc2nccc(-c3c(-c4ccc(F)cc4)nc4sccn34)n2)cc1`, the GI50 was 4.78 µM in assay [1]; 5.58 µM in assay [2]; 6.95 µM in [5]; 5.65 µM in assay [6]; 4.86 µM in assay [7]; 3.95 µM in assay [8]. In addition, the TGI was more than 100 µM in assay [1]; 37.4 µM in assay [2]; more than 100 µM in assay [5]; 26.8 µM in assay [6]; more than 100 µM in assay [7]; more than 100 µM in assay [8].
